Measured values published in patent US4031226A, “N-[(1-piperidinyl)alkyl]arylcarboxamide derivatives” (Janssen Pharmaceutica N.V., priority 1976, dated 1977).
Where two headings read alike, the source gives them in different places.

How the values were obtained:
[1] = test system: apomorphine-induced phenomena: agitation and stereotypic chewing; assay: The apomorphine test in rats (anti-apomorphine activity); type: in vivo, male Wistar rats; details: Rattus norvegicus, sc, read-out: LED (lowest effective dose), anti-apomorphine activity in rats
Experimental: The compounds of formula (I) are potent psychotropic agents and as such they can be used in the treatment of metal disorders such as, for example, personality and psycho-affective disorders and schizophrenia. The psychotropic activity of the subject compounds (I) is strongly evidenced by the experimental data obtained in the apomorphine test in rats, a test which is indicative for central nervous system depressant activity. The test was carried out following the procedure described hereafter and the experimental data which were obtained are summarized in table V wherein the compound numbers refer to the corresponding structures in the Tables I to IV.
The apomorphine test in rats
The experimental animals used in this test were adult male Wistar rats (weight 240 ± 10 g.). After an overnight fast, the animals were treated subcutaneously (1ml/100 g) with an aqueous solution of the compound under investigation and put into isolated observation cages.

[2] = test system: apomorphine-induced vomiting; assay: block of apomorphine-induced vomiting in dogs (antiemetic activity); type: in vivo, beagle dogs; details: Canis lupus familiaris, sc, read-out: ED50 (dose which protects 50% of the animals from emesis)
Experimental: The method used is described previously by P. A. J. Janssen and C. J. E. Niemegeers in: Arzneim. -Forsch. (Drug Res), 9, 765-767 (1959).
The compounds listed below were administered subcutaneously to beagle dogs at different doses and the animals were challenged 1 hour thereafter with a standard dose of 0.31 mg/kg (subcutaneous) of apomorphine.
The tables below give the ED50 values of a number of the compounds under consideration. As used herein, the ED50 value represents the dose which protects 50% of the animals from emesis.

[3] = 30 min before 1.25 mg/kg i.v. apomorphine hydrochloride, observed over 1 hour, Fisher exact probability test
[4] = beagle dogs, challenged 1 hour thereafter with 0.31 mg/kg s.c. apomorphine

Row | Compound | minimal effective dose [1] | ED50 ([2]; 1 h) | minimal effective dose [1, 3] | ED50 [2, 4]
1 | Cc1ccccc1C(=O)NCCN1CCC2(CC1)C(=O)NCN2c1ccccc1 [Compound 6] | 2.5 mg/kg | 0.1 mg/kg | – | –
2 | O=C(NCCN1CCC2(CC1)C(=O)NCN2c1ccccc1)c1ccc(F)cc1 [Compound 2] | 5 mg/kg | 0.06 mg/kg | – | –
3 | Cn1cccc1C(=O)NCCN1CCC2(CC1)C(=O)NCN2c1ccc(F)cc1 [Compound 24] | 10 mg/kg | 0.25 mg/kg | – | –
4 | Cl.Nc1cc(F)ccc1C(=O)NCCN1CCC2(CC1)C(=O)NCN2c1ccc(F)cc1.O [Compound 20, 2-amino-4-fluoro-N-{2-[1-(4-fluorophenyl)-4-oxo-1,3,8-triazaspiro[4,5]dec-8-yl]ethyl}benzamide hydrochloride hydrate] | 5 mg/kg | 0.002 mg/kg | – | –
5 | O=C(NCCN1CCC2(CC1)C(=O)NCN2c1ccccc1)c1ccccc1Cl [Compound 3] | 0.31 mg/kg | 0.06 mg/kg | – | –
6 | Nc1cc(F)ccc1C(=O)NCCN1CCC(n2c(=O)[nH]c3ccccc32)CC1 [Compound 33] | – | – | 5 mg/kg | 0.03 mg/kg
7 | O=C(NCCN1CCC2(CC1)C(=O)NCN2c1ccc(F)cc1)c1ccc(F)cc1Cl [Compound 9] | 0.63 mg/kg | 0.002 mg/kg | – | –
8 | O=C(NCCN1CCC(n2c(=O)[nH]c3ccccc32)CC1)c1ccccc1F [Compound 27] | – | – | 5 mg/kg | 0.5 mg/kg
9 | O=C(NCCN1CCC2(CC1)C(=O)NCN2c1ccc(F)cc1)c1ccc(F)cc1[N+](=O)[O-] | – | 0.03 mg/kg | – | –
10 | O=C(NCCN1CCC2(CC1)C(=O)NCN2c1ccc(F)cc1)c1ccccc1[N+](=O)[O-] | – | 0.12 mg/kg | – | –
11 | COc1ccc(C(=O)NCCN2CCC3(CC2)C(=O)NCN3c2ccccc2)cc1 | – | 0.5 mg/kg | – | –
12 | O=C(NCCN1CC=C(n2c(=O)[nH]c3ccccc32)CC1)c1ccc(F)cc1 | – | – | – | 0.25 mg/kg
13 | O=C(NCCN1CCC2(CC1)C(=O)NCN2c1ccccc1)c1cccc(Cl)c1 | – | 0.63 mg/kg | – | –
14 | O=C(NCCN1CCC(n2c(=O)[nH]c3ccccc32)CC1)c1ccc(F)cc1 | – | – | – | 0.12 mg/kg
15 | O=C(NCCN1CCC2(CC1)C(=O)NCN2c1ccccc1)c1ccc(F)cc1Cl [Compound 21] | 2.5 mg/kg | 0.015 mg/kg | – | –
16 | Cl.Nc1cc(F)ccc1C(=O)NCCN1CCC2(CC1)C(=O)NCN2c1ccccc1.O [Compound 7, 2-amino-4-fluoro-N-[2-(4-oxo-1-phenyl-1,3,8-triazaspiro[4,5]dec-8-yl)ethyl]benzamide hydrochloride hydrate] | 2.5 mg/kg | 0.004 mg/kg | – | –
17 | O=C(NCCN1CCC(n2c(=O)[nH]c3cc(Cl)ccc32)CC1)c1ccc(F)cc1[N+](=O)[O-] | – | – | – | 0.25 mg/kg
18 | O=C(NCCN1CCC2(CC1)C(=O)NCN2c1ccccc1)c1ccc(Cl)cc1 | – | 0.8 mg/kg | – | –
19 | CC(=O)Nc1cc(F)ccc1C(=O)NCCN1CCC2(CC1)C(=O)NCN2c1ccc(F)cc1 [Compound 25] | 5 mg/kg | 0.07 mg/kg | – | –
20 | O=C(NCCN1CCC2(CC1)C(=O)NCN2c1ccccc1)c1ccccc1Br [Compound 4] | 2.5 mg/kg | 0.25 mg/kg | – | –

Row | Compound | minimal effective dose [1] | ED50 ([2]; 1 h) | minimal effective dose [1, 3] | ED50 [2, 4]
21 | Nc1ccccc1C(=O)NCCN1CCC(n2c(=O)[nH]c3cc(Cl)ccc32)CC1 | – | – | – | 0.45 mg/kg
22 | Nc1ccccc1C(=O)NCCN1CCC2(CC1)C(=O)NCN2c1ccc(F)cc1 [Compound 23] | 2.5 mg/kg | 0.008 mg/kg | – | –
23 | O=C(NCCN1CCC2(CC1)C(=O)NCN2c1ccc(F)cc1)c1ccccc1Cl [Compound 14] | 0.63 mg/kg | 0.004 mg/kg | – | –
24 | O=C(NCCN1CCC(n2c(=O)[nH]c3ccccc32)CC1)c1ccccc1Cl [Compound 34] | – | – | 5 mg/kg | 1.5 mg/kg
25 | Nc1cc(F)ccc1C(=O)NCCN1CCC(O)(c2ccc(Cl)cc2)CC1 [Compound 40] | 5 mg/kg | 0.7 mg/kg | – | –
26 | O=C(NCCN1CCC(n2c(=O)[nH]c3ccccc32)CC1)c1ccc(F)cc1[N+](=O)[O-] | – | – | – | 0.5 mg/kg
27 | N#CCCn1c(=O)n(C2CCN(CCNC(=O)c3ccc(F)cc3)CC2)c2ccccc21 | – | – | – | 0.5 mg/kg
28 | O=C(NCCN1CCC2(CC1)C(=O)NCN2c1ccccc1)c1ccccc1 | – | 0.1 mg/kg | – | –
29 | CC(=O)Nc1cc(F)ccc1C(=O)NCCN1CCC(n2c(=O)[nH]c3ccccc32)CC1 [Compound 37] | – | – | 10 mg/kg | 0.04 mg/kg
30 | O=C(NCCN1CCC(n2c(=O)[nH]c3cc(Cl)ccc32)CC1)c1ccc(F)cc1Cl [Compound 32] | – | – | 1.25 mg/kg | 0.03 mg/kg
31 | O=C(NCCN1CCC(n2c(=O)[nH]c3ccccc32)CC1)c1ccccc1 | – | – | – | 0.2 mg/kg
32 | O=C(NCCN1CCC2(CC1)C(=O)NCN2c1ccc(F)cc1)c1ccc(F)cc1 [Compound 8] | 10 mg/kg | 0.015 mg/kg | – | –
33 | O=C(NCCN1CCC(n2c(=O)[nH]c3cc(Cl)ccc32)CC1)c1ccc(F)cc1 [Compound 31] | 5 mg/kg | 0.08 mg/kg | – | –
34 | CC(=O)Nc1cc(F)ccc1C(=O)NCCN1CCC(n2c(=O)[nH]c3cc(Cl)ccc32)CC1 [Compound 38] | – | – | 10 mg/kg | 0.06 mg/kg
35 | Cc1ccccc1C(=O)NCCN1CCC(n2c(=O)[nH]c3ccccc32)CC1 | – | – | – | 0.25 mg/kg
36 | O=C(NCCN1CCC2(CC1)C(=O)NCN2c1ccccc1)c1ccc(F)cc1[N+](=O)[O-] | – | 0.25 mg/kg | – | –
37 | O=C(NCCN1CCC2(CC1)C(=O)NCN2c1ccccc1)c1ccccc1F [Compound 16] | 1.25 mg/kg | 0.25 mg/kg | – | –
38 | Nc1ccccc1C(=O)NCCN1CCC(n2c(=O)[nH]c3ccccc32)CC1 [Compound 36, 2-amino-N-{2-[4-(2,3-dihydro-2-oxo-1H-benzimidazol-1-yl)-1-piperidinyl]ethyl}benzamide hemihydrate] | – | – | – | 0.1 mg/kg
39 | O=C(NCCN1CCC2(CC1)C(=O)NCN2c1ccccc1)c1cccs1 | – | 0.45 mg/kg | – | –
40 | O=C(NCCN1CCC2(CC1)C(=O)NCN2c1ccc(F)cc1)c1ccccc1O [Compound 11] | 10 mg/kg | 0.2 mg/kg | – | –
